Holding throughout (type): cell-based
Experiment [1] addresses T1, human GLP-1 receptor (Homo sapiens, UniProt P43220).
T1 construct: expressed in transfected cells; host or cells: PSC-HEK-293
The experiment can be described thus: HTRF cAMP assay in HEK-293 cells expressing human GLP-1 receptor. Here is the method:
(§1) Each vial contained 1.8 ml cells. The vials were slowly frozen to −80° C. in isopropanol, and then transferred in liquid nitrogen for storage.
(§2) Cells were resuspended in assay buffer (cell buffer plus 2 mM IBMX) and adjusted to a cell density of 1 million cells/ml.
(§3) For measurement of cAMP generation, 5 μl cells (final 5000 cells/well) and 5 μl of test compound were added to a 384-well plate, followed by incubation for 30 min at room temperature.
(§4) The cAMP generated was determined using a kit from Cisbio Corp. based on HTRF (Homogenous Time Resolved Fluorescence). The cAMP assay was performed according to manufacturer's instructions (Cisbio).

Experiment [2] deals with T2, human glucagon (GCG) receptor (Homo sapiens, UniProt P47871).
T2 construct: expressed in transfected cells; host or cells: PSC-HEK-293
T2 sequence (P47871 26-477): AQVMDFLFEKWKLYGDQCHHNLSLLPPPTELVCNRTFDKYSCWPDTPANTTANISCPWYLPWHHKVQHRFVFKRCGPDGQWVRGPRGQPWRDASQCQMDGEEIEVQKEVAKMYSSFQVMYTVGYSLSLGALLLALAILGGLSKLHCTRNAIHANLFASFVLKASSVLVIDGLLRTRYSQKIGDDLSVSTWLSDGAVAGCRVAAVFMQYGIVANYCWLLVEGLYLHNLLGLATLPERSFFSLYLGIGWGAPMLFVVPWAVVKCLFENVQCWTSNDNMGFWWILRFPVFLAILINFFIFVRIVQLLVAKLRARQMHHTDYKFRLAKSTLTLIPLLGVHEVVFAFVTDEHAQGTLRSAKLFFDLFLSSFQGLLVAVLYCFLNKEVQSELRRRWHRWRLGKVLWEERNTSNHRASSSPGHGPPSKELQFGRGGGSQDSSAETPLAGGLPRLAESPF
The experiment can be described thus: HTRF cAMP assay in HEK-293 cells expressing human glucagon receptor. Here is the method:
as §1, §2, §3, §4

The target in experiment [3] is T3, human GIP receptor (Homo sapiens, UniProt P48546).
T3 construct: expressed in transfected cells; host or cells: PSC-HEK-293
T3 sequence (P48546 22-466): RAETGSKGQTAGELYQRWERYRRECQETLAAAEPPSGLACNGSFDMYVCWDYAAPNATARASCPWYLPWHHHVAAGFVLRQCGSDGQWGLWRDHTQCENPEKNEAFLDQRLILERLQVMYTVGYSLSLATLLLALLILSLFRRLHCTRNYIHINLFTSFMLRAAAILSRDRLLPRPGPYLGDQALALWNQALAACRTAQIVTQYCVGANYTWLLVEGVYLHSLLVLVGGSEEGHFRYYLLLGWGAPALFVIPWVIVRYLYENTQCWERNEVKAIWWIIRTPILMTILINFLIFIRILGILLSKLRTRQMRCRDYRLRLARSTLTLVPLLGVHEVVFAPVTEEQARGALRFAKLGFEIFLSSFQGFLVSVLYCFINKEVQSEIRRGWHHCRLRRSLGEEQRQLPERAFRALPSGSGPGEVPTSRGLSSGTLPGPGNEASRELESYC
The experiment can be described thus: HTRF cAMP assay in HEK-293 cells expressing human GIP receptor. The protocol:
as §1, §2, §3, §4
(Time-resolved FRET reads energy transfer from a long-lived donor to a nearby acceptor.)

Setting [4] is: HEK-293 cells, read-out: HTRF cAMP EC50 Human GLP-1R.
The mark [5] stands for this setting: HEK-293 cells, read-out: HTRF cAMP EC50 Human GCGR.
[6] abbreviates: HEK-293 cells, read-out: HTRF cAMP EC50 Human GIPR.

We go through five molecules from patent US20250115669A1, “FGFR1/KLB Targeting Agonistic Antigen-Binding Proteins and Conjugates Thereof with GLP-1R Agonistic Peptides” (SANOFI, priority 2020, published 2025).

Read-outs that look alike come from different tables or passages of the source. Peptide text beside a SMILES is read from it.

T1 sequence (P43220 24-463): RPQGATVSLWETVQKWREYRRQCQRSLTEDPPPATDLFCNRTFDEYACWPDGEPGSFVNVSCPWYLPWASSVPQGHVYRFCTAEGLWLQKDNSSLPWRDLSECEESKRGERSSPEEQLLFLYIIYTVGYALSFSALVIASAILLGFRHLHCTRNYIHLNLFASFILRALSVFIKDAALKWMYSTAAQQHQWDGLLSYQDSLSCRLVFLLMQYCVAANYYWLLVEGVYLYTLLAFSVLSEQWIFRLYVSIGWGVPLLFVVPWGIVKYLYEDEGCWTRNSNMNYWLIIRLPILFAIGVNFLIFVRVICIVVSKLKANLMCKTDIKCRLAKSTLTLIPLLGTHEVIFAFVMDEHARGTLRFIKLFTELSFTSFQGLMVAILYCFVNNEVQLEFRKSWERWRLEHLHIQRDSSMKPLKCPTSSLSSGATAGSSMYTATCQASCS

Consider `CC[C@H](C)[C@H](NC(=O)[C@H](Cc1ccccc1)NC(=O)[C@H](CC(C)C)NC(=O)[C@H](CCC(N)=O)NC(=O)[C@@H](NC(=O)[C@H](CCCNC(=N)N)NC(=O)[C@H](CCC(=O)O)NC(=O)[C@H](CCC(=O)O)NC(=O)[C@H](CCC(=O)O)NC(=O)[C@H](CC(C)C)NC(=O)[C@H](CCC(N)=O)NC(=O)[C@H](CCCCN)NC(=O)[C@H](CO)NC(=O)[C@H](CC(C)C)NC(=O)[C@H](CC(=O)O)NC(=O)[C@H](CO)NC(=O)[C@@H](NC(=O)[C@H](Cc1ccccc1)NC(=O)[C@@H](NC(=O)CNC(=O)[C@H](CCC(=O)O)NC(=O)CNC(=O)[C@@H](N)Cc1c[nH]cn1)[C@@H](C)O)[C@@H](C)O)C(C)C)C(=O)N[C@@H](CCC(=O)O)C(=O)N[C@@H](Cc1c[nH]c2ccccc12)C(=O)N[C@@H](CC(C)C)C(=O)N[C@@H](CCCCN)C(=O)N[C@@H](C)C(=O)N[C@H](C(=O)NCC(=O)N1CCC[C@H]1C(=O)N[C@@H](CO)C(=O)N[C@@H](CO)C(=O)NCC(=O)N[C@@H](C)C(=O)N1CCC[C@H]1C(=O)N1CCC[C@H]1C(=O)N1CCC[C@H]1C(=O)N[C@@H](CO)C(N)=O)[C@@H](C)O` [Ab P008] (H-HGEGTFTSDLSKQLEEERVQLFIEWLKATGPSSGAPPPS-NH2), for which the concentration for a half-maximal effect (EC50) is 0.0232 nM in experiment [1], over 10 nM in experiment [2] and over 10 nM in experiment [3].

In the case of `CC[C@H](C)[C@H](NC(=O)[C@H](Cc1ccccc1)NC(=O)[C@H](CC(C)C)NC(=O)[C@H](CCCNC(=N)N)NC(=O)[C@@H](NC(=O)[C@H](C)NC(=O)[C@H](CCC(=O)O)NC(=O)[C@H](CCC(=O)O)NC(=O)[C@H](CCC(=O)O)NC(=O)[C@H](CC(C)C)NC(=O)[C@H](CCC(N)=O)NC(=O)[C@H](CCCCN)NC(=O)[C@H](CO)NC(=O)[C@H](CC(C)C)NC(=O)[C@H](CC(=O)O)NC(=O)[C@H](CO)NC(=O)[C@@H](NC(=O)[C@H](Cc1ccccc1)NC(=O)[C@@H](NC(=O)CNC(=O)[C@H](CCC(=O)O)NC(=O)CNC(=O)[C@H](Cc1c[nH]cn1)NC(=O)CN)[C@@H](C)O)[C@@H](C)O)C(C)C)C(=O)N[C@@H](CCC(=O)O)C(=O)N[C@@H](Cc1c[nH]c2ccccc12)C(=O)N[C@@H](CC(C)C)C(=O)N[C@@H](CCCCN)C(=O)N[C@@H](C)C(=O)NCC(=O)NCC(=O)N1CCC[C@H]1C(=O)N[C@@H](CCCCN)C(=O)N[C@@H](CCCCN)C(=O)N[C@H](C(=O)N[C@@H](CCCNC(=N)N)C(=O)N[C@@H](Cc1ccc(O)cc1)C(=O)N[C@@H](CO)C(N)=O)[C@@H](C)CC` [Ab P013] (H-GHGEGTFTSDLSKQLEEEAVRLFIEWLKAGGPKKIRYS-NH2), the EC50 in experiment [1] was 0.0099 nM; in experiment [2], over 10 nM; in experiment [3], over 10 nM.

Take `CC[C@H](C)[C@H](NC(=O)[C@H](Cc1ccccc1)NC(=O)[C@H](CC(C)C)NC(=O)[C@H](CCCNC(=N)N)NC(=O)[C@@H](NC(=O)[C@H](C)NC(=O)[C@H](CCC(=O)O)NC(=O)[C@H](CCC(=O)O)NC(=O)[C@H](CCC(=O)O)NC(=O)[C@H](CC(C)C)NC(=O)[C@H](CCC(N)=O)NC(=O)[C@H](CCCCN)NC(=O)[C@H](CO)NC(=O)[C@H](CCCCN)NC(=O)[C@H](CC(=O)O)NC(=O)[C@H](CO)NC(=O)[C@@H](NC(=O)[C@H](Cc1ccccc1)NC(=O)[C@@H](NC(=O)CNC(=O)[C@H](CCC(=O)O)NC(=O)CNC(=O)[C@H](Cc1c[nH]cn1)NC(=O)CN)[C@@H](C)O)[C@@H](C)O)C(C)C)C(=O)N[C@@H](CCC(=O)O)C(=O)N[C@@H](Cc1c[nH]c2ccccc12)C(=O)N[C@@H](CC(C)C)C(=O)N[C@@H](CCCCN)C(=O)N[C@@H](C)C(=O)NCC(=O)NCC(=O)N1CCC[C@H]1C(=O)N[C@@H](CCCCN)C(=O)N[C@@H](CCCCN)C(=O)N[C@H](C(=O)N[C@@H](CCCNC(=N)N)C(=O)N[C@@H](Cc1ccc(O)cc1)C(=O)N[C@@H](CO)C(N)=O)[C@@H](C)CC` [Ab P014] (H-GHGEGTFTSDKSKQLEEEAVRLFIEWLKAGGPKKIRYS-NH2; N-terminus assumed): the half-maximal effective concentration (EC50) is 0.0105 nM in experiment [1] (setting [4]), 5.4 nM in experiment [2] (setting [5]) and over 10 nM in experiment [3] (setting [6]).

Turning to `CC[C@H](C)[C@H](NC(=O)[C@H](Cc1ccccc1)NC(=O)[C@H](CC(C)C)NC(=O)[C@H](CCC(N)=O)NC(=O)[C@@H](NC(=O)[C@H](C)NC(=O)[C@H](CCC(=O)O)NC(=O)[C@H](CCC(=O)O)NC(=O)[C@H](CCC(=O)O)NC(=O)[C@H](CC(C)C)NC(=O)[C@H](CCC(N)=O)NC(=O)[C@H](CCCCN)NC(=O)[C@H](CO)NC(=O)[C@H](CC(C)C)NC(=O)[C@H](CC(=O)O)NC(=O)[C@H](CO)NC(=O)[C@@H](NC(=O)[C@H](Cc1ccccc1)NC(=O)[C@@H](NC(=O)CNC(=O)[C@H](CCC(=O)O)NC(=O)CNC(=O)[C@H](Cc1c[nH]cn1)NC(=O)CN)[C@@H](C)O)[C@@H](C)O)C(C)C)C(=O)N[C@@H](CCC(=O)O)C(=O)N[C@@H](Cc1c[nH]c2ccccc12)C(=O)N[C@@H](CC(C)C)C(=O)N[C@@H](CCCCN)C(=O)N[C@@H](C)C(=O)NCC(=O)NCC(=O)N1CCC[C@H]1C(=O)N[C@@H](CCCCN)C(=O)N[C@@H](CCCCN)C(=O)N[C@H](C(=O)N[C@@H](CCCNC(=N)N)C(=O)N[C@@H](Cc1ccc(O)cc1)C(=O)N[C@@H](CO)C(N)=O)[C@@H](C)CC` [Ab P015] (H-GHGEGTFTSDLSKQLEEEAVQLFIEWLKAGGPKKIRYS-NH2; N-terminus assumed), the EC50 was 0.0156 nM in experiment [1] (setting [4]), over 10 nM in experiment [2] (setting [5]) and over 10 nM in experiment [3] (setting [6]).

For the molecule `CC[C@H](C)[C@H](NC(=O)[C@H](Cc1ccccc1)NC(=O)[C@H](CC(C)C)NC(=O)[C@H](CCCNC(=N)N)NC(=O)[C@@H](NC(=O)[C@H](C)NC(=O)[C@H](CCC(=O)O)NC(=O)[C@H](CCC(=O)O)NC(=O)[C@H](CCC(=O)O)NC(=O)[C@H](CC(C)C)NC(=O)[C@H](CCC(N)=O)NC(=O)[C@H](CCCCN)NC(=O)[C@H](CO)NC(=O)[C@H](CC(C)C)NC(=O)[C@H](CC(=O)O)NC(=O)[C@H](CO)NC(=O)[C@@H](NC(=O)[C@H](Cc1ccccc1)NC(=O)[C@@H](NC(=O)CNC(=O)[C@H](CCC(=O)O)NC(=O)CNC(=O)[C@H](Cc1c[nH]cn1)NC(=O)CN)[C@@H](C)O)[C@@H](C)O)C(C)C)C(=O)N[C@@H](CCC(=O)O)C(=O)N[C@@H](Cc1c[nH]c2ccccc12)C(=O)N[C@@H](CC(C)C)C(=O)N[C@@H](CCCCN)C(=O)N[C@@H](C)C(=O)NCC(=O)NCC(=O)N1CCC[C@H]1C(=O)N[C@@H](CO)C(=O)N[C@@H](CO)C(=O)NCC(=O)N[C@@H](C)C(=O)N1CCC[C@H]1C(=O)N1CCC[C@H]1C(=O)N1CCC[C@H]1C(=O)N[C@@H](CO)C(N)=O` [Ab P017] (H-GHGEGTFTSDLSKQLEEEAVRLFIEWLKAGGPSSGAPPPS-NH2), the 50% effective concentration (EC50) was 0.0085 nM in experiment [1], over 10 nM in experiment [2] and over 10 nM in experiment [3].

A word on the EC50: it is the concentration that produces a half-maximal response.
